Peptide text beside a SMILES is read from it. * marks the point of attachment. Cbz = O=C(OCc1ccccc1)*; CH2F = FC*

Experimental findings from US20100330602A1, “Use of Soluble Galectin-3 (Gal-3) for Cancer Treatment” (Emory University, priority 2006, published 2010) are described below.

The test system of assay [1] is Gal-3 secretion in SF767 cells. In words: Western blot for secreted Gal-3 in SF767 glioma cells. The assay is classed as cell-based, human. As to conditions: SF767, VP16 alone. How it is done: FIG. 2E. […] This effect is inhibited by p53 siRNA (lanes 5,6) but not control siRNA (lanes 3,4).
FIG. 23. […] This effect is inhibited by siRNAs for TSAP6 (lane 2), p53 (lane 3) and Fas (lane 4), but not control siRNA (lane 1).
Immunoblots were performed on cell lysates (lysed in 8 M urea, 4% SDS, in 10 mM Tris (pH 7.4)), from indicated cells. The conditioned media was precipitated by 15% TCA precipitation for 2 h at 4° C., washed twice with ice-cold acetone, and then resuspended in lysis buffer (8M urea, 4% SDS, 100 mM protease inhibitor cocktail (Roche, Germany)). Electrophoresis and blotting was performed using the Criterion system (BioRad; CA, USA) on. TCA precipitated proteins. Western blots were probed with antibodies for p53 (M7001-clone DO-7; DAKO; 1:500), p21 (MS-891-P1; Neomarkers, CA, USA; 1:250), Gal-3 (ab14364; Santa Cruz, Calif., USA; 1:500), HA (Roche; Germany, 1:500), caspase-3 (1:5000), α-TSP1 (MS-421-P1-Ab-4; NeoMarkers; CA, USA; 1:1000), and PARP (556494; BD Biosciences; CA, USA, 1:1000). Actin was used as a loading control (sc-1615, Santa Cruz Biotechnology; CA; 1:500). Blots were visualized by enhanced chemiluminescence (Pierce, IL, USA). For apoptosis analysis, cells were treated with either media containing secreted Gal-3 or with both secreted Gal-3 and 50 μm Z-VAD-FMK general caspase inhibitor (BD Biosciences; CA, USA). […]
Background: A western blot detects proteins with antibodies after separation by electrophoresis.

In another assay the test system is SF767 cells. Kind of assay: Cell death in SF767 cells in response to VP16. The assay is classed as cell-based, human. As to conditions: VP16 alone or with control siRNA. An excerpt:
The levels of cell death in SF767 cells in response to VP16 treatment in the presence of either p53 or TSAP-6 specific siRNAs as well as in the presence of anti-Gal-3 antibody were further determined. […] This effect was inhibited in the presence of specific siRNAs for p53 (FIGS. 2E and H) or TSAP-6 as well as in the presence of anti-Gal-3 antibody. The inhibition mediated by TSAP6 siRNA was not complete, likely reflecting the incomplete TSAP6 inhibition by this siRNA (FIG. 2E).

Assay [2] concerns LN229 and LN-Z308 glioma cells. In words: Apoptotic features after sGal-3 treatment with or without Z-VAD. The format is cell-based, human. As to the method:
(§1) FIG. 4: Secreted Gal-3 induces apoptosis in tumor cells. FIG. 4A. Bright field pictures and quantification of LN229 glioma cells after 12 h treatment with either secreted Gal-3 alone or in combination with 50 μM Z-VAD general caspase inhibitor. Note inhibition of sGal-3-mediated cell death when cells are co-treated with Z-VAD. Results were quantified by crystal violet assay and experiments repeated three times in triplicate. Similar results were obtained with LN-Z308 cells (data not shown). FIG. 4B.
(§2) Immunoblots were performed on cell lysates (lysed in 8 M urea, 4% SDS, in 10 mM Tris (pH 7.4)), from indicated cells. The conditioned media was precipitated by 15% TCA precipitation for 2 h at 4° C., washed twice with ice-cold acetone, and then resuspended in lysis buffer (8M urea, 4% SDS, 100 mM protease inhibitor cocktail (Roche, Germany)). Electrophoresis and blotting was performed using the Criterion system (BioRad; CA, USA) on. TCA precipitated proteins. […]
(§3) LN229 and LN-Z308 glioma cells were treated with either extracellular Gal-3 alone, or in combination with the Z-VAD general caspase inhibitor and analyzed the cells for apoptotic features.

Assay [3] deals with Caspase-3 and PARP cleavage in LN229 cells. In words: Western blot for caspase-3 and PARP cleavage after sGal-3 treatment. The format is cell-based, human. As to the method:
as §1, §2, §3

Assay [4] concerns four different human glioma cell lines. Kind of assay: Recombinant Gal-3 added to culture medium, cell number. The assay is classed as cell-based. How it is done: FIG. 6D. Purified recombinant human Gal-3 (Research Diagnostics Inc.) induces cytotoxicity in four glioma cell lines in a dose-response fashion (0, 5, 12.5, 25, 50, 100, 150 ng/ml) within 48 hrs.
A comparison of rGal3 with naturally secreted Gal3 evidences post-translational modifications in the naturally secreted one (data not shown).

For the next assay, the system named is LN-Z308 glioma cells. In words: Crystal violet assay, CM of sGal-3 transfected 293 cells. As to conditions: CM of transfected 293 cells as source of sGal-3, after 48 h. The format is cell-based, human. As to the method: (§4) 293 cells were transfected using GenePORTER reagent (Gene Therapy Systems; CA, USA) with the pUMVC7-sGal-3 plasmid and switched over to serum free media 16 h later. The CM was collected after 48 h, floating cells removed through centrifugation at 1000 g, and filtrated through a 0.8 μm filter (Corning; NY, USA). Cells were plated at 5,000 cells per well in 24-well plates and treated with serial dilutions of CM from either pCMV-LacZ or pUMVC7-sGal-3 transfected 293 cells. Relative cell number compared to serum free media control was quantified in triplicate 24 h and 48 h post treatment using either an MTT kit (Roche; IN, USA) or by crystal violet assay by acquiring absorbance at 575 nm using a spectrophotometer.
(§5) After cleavage of the secretion signal, the sGal-3 amino acid sequence is identical to the endogenous secretion product. It is nevertheless possible that sGal3 will have different post-translational modifications that may vary between the exosome-mediated secretory pathway and the classical secretion pathway. To verify the functionality of the construct, the construct was transfected in 293-CLH cells where it mediated a robust increase in the expression and secretion of Gal-3 without intracellular accumulation (FIG. 6A). Using the CM of transfected 293 cells as a source of sGal-3, its effect on the growth of SF767, LN-Z308 and LN229 glioma cells was determined using a crystal violet assay. […] Cells incubated with serum free medium or CM from 293 cells transfected with control pCMV-lacZ plasmid were unaffected (FIG. 6B).

For the next assay, the system named is LN229 glioma cells. The assay is described as above. The format is cell-based, human. As to conditions: CM of transfected 293 cells as source of sGal-3, after 48 h. As to the method:
as §4, §5

A further assay relates to SF767 glioma cells. The description is as above. The format is cell-based, human. Particulars: CM of transfected 293 cells as source of sGal-3, after 48 h. As to the method:
as §4, §5

For assay [5], the system named is A549 lung cancer cell line. Described as above. The format is cell-based. As to the method: as §4
(§6) To examine whether the cytotoxic effect of Gal-3 was limited to glioma or whether it represents a more general anti-cancer property, two breast cancer (MD468 and MCF7), two lung cancer (A549 and H1289) and two prostate cancer (LnCaP and PC3) cell lines were tested using the same assay and found all of them to be sensitive to sGal-3 presence in the medium (FIG. 6B).

Assay [6] concerns H1289 lung cancer cell line. The assay is described as above. The assay is classed as cell-based. As to the method: as §4, §6
The test system of assay [7] is LnCaP prostate cancer cell line. The description is as above. The assay is classed as cell-based. How it is done: as §4, §6
Assay [8] relates to MCF7 breast cancer cell line. The assay is described as above. The format is cell-based. How it is done:
as §4, §6

The subject of assay [9] is MD468 breast cancer cell line. The description is as above. The format is cell-based. As to the method: as §4, §6
Assay [10] concerns PC3 prostate cancer cell line. The assay is described as above. The assay is classed as cell-based. As to the method: as §4, §6
The test system of assay [11] is human dermal microvascular endothelial cells (HDMEC). In words: Crystal violet assay, CM of sGal-3 transfected 293 cells, normal cells. The assay is classed as cell-based. How it is done:
as §4, §6

Assay [12] relates to human foreskin fibroblasts (HFF). Described as above. The assay is classed as cell-based. As to the method:
as §4, §6

Assay [13] deals with LN229-L16-derived dox-inducible sGal-3 clones. Kind of assay: Dox-induced sGal-3 expression in cell culture. The format is cell-based, human. Particulars: within 3-5 days in cell culture. How it is done:
Five μg of the plasmid DNA and 5 μl of GenePORTER reagent (Gene Therapy Systems; San Diego, Calif.) were used for each transfection. One μg of pcDNA3.1 containing the geneticin (G418)-resistance cassette was co-transfected at a […], when generating stable clones. Tetracycline-inducible sGal-3 transfected clones were generated in L16 glioma cells (Tet-on clone derived from LN229) by selecting for G418 resistance (1,200 μg/ml). The individual clones were assessed for expression of sGal-3 after 48 h dox induction by western blot analysis. For TSAP6 siRNA, HEK293 cells were transfected with either pcDNA3.1 vectors containing TSAP6 and Galectin-3 alone or in combination with […] or TSAP6 (pHYDE) siRNA (Santa Cruz, Calif., USA) using GenePORTER reagent (Gene Therapy Systems; CA, USA). Cells were allowed to recover overnight in 10% FBS containing DMEM before switching them to serum free media. Cells and CM were collected after 24 hours in serum free media.
To test this concept, dox-inducible sGal-3 clones were generated with variable expression levels in LN229-L16 cells (rtTA expressing) (see materials and methods) (FIG. 7A).

Assay [14] relates to tumors of sGal-3 expressing tet-inducible clones #12 and #21. In words: In vivo mouse tumorigenicity assay (subcutaneous xenograft). Also on record: species or system athymic nude mice. As to the method: FIG. 7C. sGal-3 inhibits tumor growth. Six-week old female athymic nude mice (NCI) were injected subcutaneously with 5×10^6 cells of clone #12 and divided into two groups (n=8). Similar results were obtained with clone #21. One group was left untreated while the second group was given 2 mg/ml Dox in drinking water containing 5% sucrose to induce expression of sGal-3 one week after tumor cell implantation until termination of the experiment. The length (a) and width (b) of the tumors were measured weekly and tumor volume was calculated in mm^3=(a×b^2)/2.
Six-week old female athymic nude mice (NCI) (n=8/group) were injected subcutaneously with 5×10^6 cells of the indicated cell lines. 2 mg/ml Dox was delivered orally in drinking water containing 5% sucrose to induce expression and secretion of Gal-3 one week post injection of tumor cells until termination of the experiment. The length (a) and width (b) of the tumors were measured weekly and tumor volume was calculated in mm^3=(a×b^2)/2.
To test directly the effect of sGal-3 on tumor growth in vivo, a nu/nu mouse xenograft model system was used. Cells (5×10^6) from the sGal-3 expressing tet-inducible clones #12 and #21 were injected subcutaneously in the mice and sGal-3 expression was induced one week post tumor cell implantation in half of the injected mice by feeding dox in the drinking water for 12 weeks (9 mice/group). Only 4 of the 18 tumors (clone #12) in the sGal-3 expressing group developed while 14/18 tumors grew in the control group. […] Immunohistochemistry for Gal-3 expression in excised tumors from mice treated with doxycycline confirmed that Gal-3 was expressed (FIG. 7D).

As to `COc1cc([C@@H]2c3cc4c(cc3[C@@H](O[C@@H]3O[C@@H]5CO[C@@H](C)O[C@H]5[C@H](O)[C@H]3O)[C@H]3COC(=O)[C@H]23)OCO4)cc(OC)c1O` [Etoposide, etoposide], in assay [1], the “secretion of Gal-3 in the media” value is recorded as “enhanced secretion of Gal-3”. Also, the “levels of cell death” value in the assay with SF767 cells is reported as “marked levels of apoptosis”.
Regarding `COC(=O)C[C@H](NC(=O)[C@H](C)NC(=O)[C@@H](NC(=O)OCc1ccccc1)C(C)C)C(=O)CF` [Z-VAD, Z-VAD-FMK, reference compound] (Cbz-Val-Ala-Asp(OMe)-CH2F), the “effect on sGal-3-mediated cell death” value in assay [2] (co-treatment with 50 μM Z-VAD) is “inhibited”. Besides, in [3] (co-treatment with 50 μM Z-VAD), the “effect on sGal-3-induced Caspase-3 and PARP cleavage” value is on record as “neutralized”.
Turning to “rGal-3: Purified recombinant human Gal-3 (Research Diagnostics Inc.)”, the “potency compared with naturally secreted Gal-3” value in assay [4] is listed as “less than that found naturally secreted by human cells”. In addition, the cell number entry in assay [4] (increasing amounts (0, 5, 12.5, 25, 50, 100, 150 ng/ml) over 48 h) is listed as “dose-dependent decrease in cell number”.
As for “sGal-3: constitutively secreted soluble Gal-3; Gal-3 cDNA fused to classical secretion signal peptide from the plasminogen activator gene, produced in 293 cells”, the “decrease in cell number” value in the assay on LN-Z308 glioma cells, in the assay with LN229 glioma cells and in the assay on SF767 glioma cells was “greater than 75%” in each case. Further, the “sensitivity to sGal-3 presence in the medium” value in [5], in assay [6], in [7], in [8], in [9] and in [10] was “sensitive” throughout. The “viability in response to secreted Gal-3 in the media” value in [11] and in assay [12] was “did not show decreased viability” in each case. Also, the apoptotic features result in assay [2] (sGal-3 alone, as early as 12 h post treatment) was “membrane blebbing, and cell death”. Besides, in [3] (within 12 h of sGal-3 treatment), the “Caspase-3 and PARP cleavage” value is “Caspase-3 and PARP cleavage”. Also, the “cell death upon induction of sGal-3” value in [13] is given as “cell death in all three clones”. Also, the “average tumor volume at termination versus controls” value in assay [14] (clone #12, p<0.02) was “over six-fold smaller”. In assay [14] (clone #12, sGal-3 induced by dox in drinking water for 12 weeks, control 14/18), the tumors developed is 4 of the 18. For the same compound, the “tumor size at termination, fold smaller than control group” value in assay [14] (clone #21, on average) is recorded as 4 fold. Moreover, the tumors grew in assay [14] (clone #21, sGal-3 expression, control 16/18) is 6 of 18.
